Measurements taken from US8871463B2, “Method for screening a glutamate release inhibitor in an astrocyte” (Korea Institute of Science and Technology, priority 2012, dated 2014).
pEC50: −log10 of the molar value. Entries after “also recorded” stand apart in the source; their conditions may differ.

Experiments:
TREK-1 [1] = assay: Gβγ-induced whole-cell current in cultured astrocytes; assay type: cell-based, mouse; conditions: 6.09 nM Gβγ; for Gβγ-induced whole-cell current: competitive peptide in patch pipette; for Gβγ-induced conductance: 150 [Glu]in, gene silencing
Experimental: (§1) Current-voltage (I-V) curves were recorded from COS-7 expressing TREK-1. I-V curves were established by applying 1000-ms-duration voltage ramps from +70 to −100 mV. Data were acquired by an Axopatch 200A amplifier controlled by Clampex 9.2 via Digidata 1322A data acquisition system (Molecular Devices). Internal solution contained the following (in mM: 150 KCl, 5 EGTA, 10 HEPES, 0.5 CaCl2, 1 MgCl2, pH 7.3, 280 osm). Bath solution contains the following (in mM: 150 NaCl, 10 HEPES, 3 KCl, 2 CaCl2, 2MgCl2, and 5.5 glucose, pH 7.3). The pipette solution for observing Ca^2+ activated Cl^− current (Best1 channel current) whole-cell patch clamp in astrocytes contained the following (in mM: 135 NMDG-Cl, 5 MgCl2, 5 (Ca^2+)-EGTA-N-methyl-D-glucamine (NMDG), 10 HEPES, and 10 glucose, pH 7.3, adjusted with NMDG). We used Ca^2+-free intracellular solution composed of the following (in mM: 135 NMDG-Cl, 5 EGTA-NMDG, 2 MgCl2, 8 HEPES, and 10 sucrose, pH 7.3, adjusted with NMDG). I-V curves were established by applying 1000-ms-duration voltage ramps from +100 to −100 mV.
We then asked whether Gβγ can directly open any channels in cultured astrocytes. We performed whole-cell current recording with purified Gβγ in the patch-pipette according to the method of Experimentation 12. The results were shown in FIGS. 3d to 3f, FIG. 3i, and FIGS. 12d to 12f.

GNG4 = molecular target: T1, GNG4 (Homo sapiens, UniProt P50150); assay: Yeast two hybrid interaction of TREK-1 N-terminal segments with GNG4; assay type: binding
T1 construct: expressed in transfected cells; host or cells: yeast strain AH109
T1 sequence (P50150 1-75): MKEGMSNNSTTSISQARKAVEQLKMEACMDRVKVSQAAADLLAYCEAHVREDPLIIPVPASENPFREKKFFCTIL
Text: The TREK-1-N 1-4 were ligated into pGBKT7 encoding for the GAL4 DNA binding domain (BD) and the gamma 4 was cloned into pGADT7 encoding for the activation domain (AD). To assess the protein-protein interaction between TREK-1-N and gamma 4, both BD/TREK-1-N and AD/gamma 4 were co-transformed into the yeast strain AH109. AH109 is unable to synthesize histidine. However, interaction between TREK1-N and gamma 4 enables the yeast to make the His3 enzyme, thereby permitting histidine biosynthesis and growth on His minimal medium.

[2] = system: primary cultured astrocyte; assay type: cell-based, mouse
GluR1-L497Y = GluR1-L497Y (Homo sapiens, UniProt P42261, L497Y); assay type: cell-based
Best1 channel [3] = molecular target: Best1 channel (Mus musculus, UniProt O88870); assay type: cell-based
astrocyte = assay type: cell-based, mouse
mouse TREK-1 = molecular target: T2, mouse TREK-1 (Mus musculus, UniProt P97438); assay: TREK-1-mediated whole-cell current in COS-7 cells; assay type: cell-based; conditions: COS-7 cell expressing TREK-1; voltage ramp
T2 construct: expressed in transfected cells; host or cells: COS-7
T2 sequence (P97438 1-426): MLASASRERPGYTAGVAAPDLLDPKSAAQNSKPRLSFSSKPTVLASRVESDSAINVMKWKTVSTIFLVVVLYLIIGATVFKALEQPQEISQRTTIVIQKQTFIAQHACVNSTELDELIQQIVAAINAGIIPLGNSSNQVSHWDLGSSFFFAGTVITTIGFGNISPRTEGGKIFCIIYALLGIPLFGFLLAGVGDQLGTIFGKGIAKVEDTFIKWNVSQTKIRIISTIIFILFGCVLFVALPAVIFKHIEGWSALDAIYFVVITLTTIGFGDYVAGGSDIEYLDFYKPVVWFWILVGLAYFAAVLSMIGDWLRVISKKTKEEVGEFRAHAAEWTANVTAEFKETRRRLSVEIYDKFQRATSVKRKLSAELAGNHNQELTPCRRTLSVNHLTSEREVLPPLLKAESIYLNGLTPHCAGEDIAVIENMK
Experimental: as §1

Best1 channel [4] = molecular target: T3, Best1 channel (Mus musculus, UniProt O88870); conditions: intracellular Ca2+; read-out: EC50 of activation of Best1 channel; cited from earlier work
T3 sequence (O88870 1-551): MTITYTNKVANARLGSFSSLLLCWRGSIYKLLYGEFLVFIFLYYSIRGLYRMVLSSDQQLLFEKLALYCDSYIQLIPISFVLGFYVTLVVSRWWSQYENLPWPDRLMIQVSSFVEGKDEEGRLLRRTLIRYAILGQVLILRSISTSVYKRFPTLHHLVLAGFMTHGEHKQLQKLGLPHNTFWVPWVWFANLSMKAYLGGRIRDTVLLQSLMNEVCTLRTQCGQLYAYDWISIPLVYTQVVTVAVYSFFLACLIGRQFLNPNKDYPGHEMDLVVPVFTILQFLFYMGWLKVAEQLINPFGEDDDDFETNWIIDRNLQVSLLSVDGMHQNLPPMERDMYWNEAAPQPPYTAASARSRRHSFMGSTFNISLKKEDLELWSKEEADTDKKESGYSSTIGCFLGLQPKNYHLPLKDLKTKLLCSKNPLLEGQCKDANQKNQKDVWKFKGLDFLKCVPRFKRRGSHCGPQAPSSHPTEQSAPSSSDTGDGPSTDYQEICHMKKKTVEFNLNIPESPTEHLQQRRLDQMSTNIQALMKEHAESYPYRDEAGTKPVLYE

TREK-1 [5] = assay: Two-cell sniffer patch: Gβγ-induced glutamate release from astrocyte; assay type: cell-based, mouse; conditions: 6.09 nM Gβγ, 5 mM glutamate in pipette; peptides 100 μM
Experimental: On the day of sniffer-patch, cultured astrocytes (HEK cells added) were transferred to a microscope stage for imaging. External solution contained (in mM): 150 NaCl, 10 Hepes, 3 KCl, 2 CaCl2, 2 MgCl2, 5.5 glucose, pH adjusted to pH 7.3 and osmolarity to 325 mOsmol kg* Rupture current were recorded from astrocyte under voltage (Vh=−70 mV) using Multiclamp 700B amplifier (Molecular Devices), acquired with pClamp 9.2. Recording electrodes (4-7MΩ) were filled with (mM): 5 glutamate, 135 CsCl, 0.5 CaCl2, 10 Hepes, 4 Mg-ATP, 0.3 Na3-GTP, 10 BAPTA and 6.09 nM Gβγ (pH adjusted to 7.3 with CsOH and osmolarity adjusted to 290-310 mOsm/kg with sucrose). In the case of gene silencing, transfection method is the same as simultaneous recording for sniffer patch. In competition assay, 100 μM N1-N4 synthesized peptides were added to pipette for recording astrocyte. GluR1LY-mediated currents were recorded from HEK cells expressing GluR1-L497Y under voltage clamp (Vh=−70 mV) using Multiclamp 700B amplifier (Molecular Devices), acquired with pClamp 9.2. Recording electrodes (4-7MΩ) were filled with (mM): 110 Cs-Gluconate, 30 CsCl, 0.5 CaCl2, 10 Hepes, 4 Mg-ATP, 0.3 Na3-GTP and 10 BAPTA (pH adjusted to 7.3 with CsOH and osmolarity adjusted to 290-310 mOsm/kg with sucrose). After rupture on the side of HEK cell, GluR1-L497Y-meidated full activation was induced by the treatment of 1 mM glutamate. And then Gβγ on the side of astrocyte was injected with the rupture after 10 min later. This rupture induced both inward current on both recording between astrocyte and HEK cell expressing GluR1-L497Y.

Sequence of GluR1-L497Y (P42261 19-906 L497Y limits assumed): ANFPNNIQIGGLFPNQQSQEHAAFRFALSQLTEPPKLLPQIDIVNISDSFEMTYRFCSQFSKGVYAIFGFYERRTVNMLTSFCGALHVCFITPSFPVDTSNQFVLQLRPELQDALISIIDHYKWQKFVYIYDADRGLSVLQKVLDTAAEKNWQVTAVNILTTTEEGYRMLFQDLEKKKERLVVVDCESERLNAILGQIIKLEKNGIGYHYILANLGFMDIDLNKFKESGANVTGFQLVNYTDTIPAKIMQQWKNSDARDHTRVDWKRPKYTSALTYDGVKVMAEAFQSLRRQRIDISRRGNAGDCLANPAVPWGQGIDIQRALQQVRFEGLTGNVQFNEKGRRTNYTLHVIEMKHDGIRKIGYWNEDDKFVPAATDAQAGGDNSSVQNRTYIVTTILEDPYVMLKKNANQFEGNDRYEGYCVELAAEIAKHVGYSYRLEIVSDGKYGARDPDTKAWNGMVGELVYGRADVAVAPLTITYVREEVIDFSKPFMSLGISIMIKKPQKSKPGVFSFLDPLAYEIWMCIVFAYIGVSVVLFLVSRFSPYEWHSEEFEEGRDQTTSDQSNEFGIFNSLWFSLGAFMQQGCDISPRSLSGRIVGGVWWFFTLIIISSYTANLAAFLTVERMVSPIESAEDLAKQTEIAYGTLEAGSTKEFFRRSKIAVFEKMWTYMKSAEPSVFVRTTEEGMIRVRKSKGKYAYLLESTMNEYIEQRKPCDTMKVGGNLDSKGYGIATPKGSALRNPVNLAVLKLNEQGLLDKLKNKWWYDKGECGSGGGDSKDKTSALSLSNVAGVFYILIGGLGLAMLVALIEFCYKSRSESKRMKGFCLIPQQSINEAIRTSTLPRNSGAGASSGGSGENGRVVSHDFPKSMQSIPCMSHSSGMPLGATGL

AQNSKPRLSFSS (Competitive peptides N2 of TREK-1)
Gβγ-induced whole-cell current (TREK-1 [1]): significantly reduced
interaction with GNG4 (GNG4): strongly interacted

CO/C1=C\C(C)=C\[C@@H](C)[C@@H](O)[C@@H](C)C/C(C)=C/C=C/[C@H](OC)[C@@H]([C@@H](C)[C@@H](O)[C@H](C)[C@@]2(O)C[C@@H](O)[C@H](C)[C@@H](C(C)C)O2)OC1=O [Bafilomycin A1]
fast and slow-modes of TFLLR-induced glutamate release (TFLLR-induced GluR1L497Y-mediated current) [2]: significantly reduction; also recorded: significantly reduced; also recorded: appeared to block
1 mM glutamate-induced GluR1L497Y-mediated current of sensor cell (GluR1-L497Y): marked reduction
GluR1LY-mediated Ca2+ transient evoked by 1 mM glutamate (GluR1-L497Y): reduces
surface expression of GluR1-L497Y in the sensor cell (GluR1-L497Y): almost completely eliminated
Ca2+-activated anion current (Best1 channel [3]): inhibited

O=C([O-])c1c(Cl)c(Cl)c(Cl)c(Cl)c1-c1c2cc(I)c(=O)c(I)c-2oc2c(I)c([O-])c(I)cc12.[Na+].[Na+] [Rose Bengal]
glutamate release in response to mechanical stimulation (astrocyte): inhibited
fast and slow-modes of TFLLR-induced glutamate release (TFLLR-induced GluR1L497Y-mediated current) [2]: does not inhibit; also recorded: did not have any effect

Cc1nc(N=Nc2ccc(S(=O)(=O)[O-])cc2S(=O)(=O)[O-])c(COP(=O)([O-])[O-])c(C=O)c1O.[Na+].[Na+].[Na+].[Na+] [PPADS, pyridoxal phosphate-6-azophenyl-2′,4′-disulfonic acid tetrasodium salt]
fast-mode of TFLLR-induced glutamate release [2]: appeared to block
1 mM glutamate-induced GluR1L497Y-mediated current of sensor cell (GluR1-L497Y): non-specific effect
TREK-1-mediated current (mouse TREK-1): inhibits

[Ca+2] [Ca^2+]
pEC50 (Best1 channel [4]): 6.82

TREK-1-shRNA: shRNA for mouse TREK-1 targeted at nucleotides 1043 to 1063 (SEQ ID NO: 17), in pSicoR (guide GCGTGGAGATCTACGACAAGT)
fast-mode of TFLLR-induced glutamate release [2]: selectively eliminated
slow-mode of TFLLR-induced glutamate release [2]: without affecting
Gβγ-induced current in astrocyte (TREK-1 [5]): abolished
Gβγ-induced glutamate release (sensor current) (TREK-1 [5]): abolished
Gβγ-induced conductance (TREK-1 [1]): eliminated
Gβγ-induced conductance (TREK-1 [1]; listed as TREK-1 specific shRNA): almost completely removed

AAPDLLDPKSA (Competitive peptides N1 of TREK-1)
Gβγ-induced current in astrocyte (TREK-1 [5]): significantly reduced
Gβγ-induced glutamate release (sensor current) (TREK-1 [5]): significantly reduced
Gβγ-induced whole-cell current (TREK-1 [1]): significantly reduced; also recorded: almost inhibit
interaction with GNG4 (GNG4): strongly interacted

DSAINVMKWKT (Competitive peptides N4 of TREK-1)
Gβγ-induced whole-cell current (TREK-1 [1]): significantly reduced
interaction with GNG4 (GNG4): strongly interacted
